Measurements from US20250353853A1, “FLAVIVIRUS INHIBITORS” (IRBM S.P.A., priority 2022, published 2025).
Like-named read-outs stand apart in the source and are kept apart here.

Experiments:
[1] = molecular target: West Nile Virus (WNV) NS2B-NS3 protease (West Nile virus (WNV), UniProt P06935); experiment: WNV Protease Inhibition Assay; format: biochemical
Source text: WNV Protease Inhibition Assay

[2] = system: ZIKV replicon in Vero cells; experiment: ZIKV Replication Inhibition Assay (replicon, NanoLuc); conditions: Zika virus, Vero, 72 h, read-out: Zika Replicon EC50
[3] = 2 nM protease, 10 μM pERTKR-AMC substrate, read-out: WNV Protease IC50

West Nile Virus (WNV) NS2B-NS3 protease, sequence (P06935 1502-1679 limits assumed): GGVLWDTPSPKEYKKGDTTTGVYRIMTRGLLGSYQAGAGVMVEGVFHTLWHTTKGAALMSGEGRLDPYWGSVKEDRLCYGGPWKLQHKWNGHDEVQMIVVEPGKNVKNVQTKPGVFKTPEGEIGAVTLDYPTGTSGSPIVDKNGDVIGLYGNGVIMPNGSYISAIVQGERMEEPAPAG
West Nile Virus (WNV) NS2B-NS3 protease, sequence (P06935 1371-1501 partner limits assumed): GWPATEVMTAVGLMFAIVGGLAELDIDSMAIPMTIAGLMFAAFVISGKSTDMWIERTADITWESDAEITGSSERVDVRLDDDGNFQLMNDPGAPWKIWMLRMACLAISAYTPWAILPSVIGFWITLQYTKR

SMILES | IC50 [1, 3] [nM] | EC50 [2] [nM] | IC50 [1] [nM]
Cc1ncccc1-c1ccc(C[n+]2cc([N-]C(=O)Nc3cccc(C(F)(F)F)c3)on2)nc1 [Example 138, (3-((2′-methyl-[3,3′-bipyridin]-6-yl)methyl)-1,2,3-oxadiazol-3-ium-5-yl)((3-(trifluoromethyl)phenyl)carbamoyl)amide] | < 100 | < 100 | 
Cc1ccncc1-c1ccc(C[n+]2cc([N-]C(=O)Nc3cccc(C(F)(F)F)c3)on2)nc1 [Example 139, (3-((4′-methyl-[3,3′-bipyridin]-6-yl)methyl)-1,2,3-oxadiazol-3-ium-5-yl)((3-(trifluoromethyl)phenyl)carbamoyl)amide] | < 100 | < 100 | 
Cc1ncn(C)c1-c1ccc(C[n+]2cc([N-]C(=O)Nc3cncc(C(F)(F)F)c3)on2)nc1 [Example 140, (3-((5-(1,4-dimethyl-1H-imidazol-5-yl)pyridin-2-yl)methyl)-1,2,3-oxadiazol-3-ium-5-yl)((5-(trifluoromethyl)pyridin-3-yl)carbamoyl)amide] |  | 1000 to 20000 | 100 to 1000
Cc1ncccc1-c1ccc(C[n+]2cc([N-]C(=O)Nc3cncc(C(F)(F)F)c3)on2)nc1 [Example 141, (3-((2′-methyl-[3,3′-bipyridin]-6-yl)methyl)-1,2,3-oxadiazol-3-ium-5-yl)((5-(trifluoromethyl)pyridin-3-yl)carbamoyl)amide] | < 100 | 100 to 1000 | 
Cc1noc(C)c1-c1ccc(C[n+]2cc([N-]C(=O)Nc3cccc(C4CC4)c3)on2)nc1 [Example 142, ((3-cyclopropylphenyl)carbamoyl)(3-((5-(3,5-dimethylisoxazol-4-yl)pyridin-2-yl)methyl)-1,2,3-oxadiazol-3-ium-5-yl)amide] |  | 100 to 1000 | 100 to 1000
Cc1nn(C)c(C)c1-c1ccc(C[n+]2cc([N-]C(=O)Nc3cccc(C(F)(F)F)c3)on2)nc1 [Example 143, ((3-(trifluoromethyl)phenyl)carbamoyl)(3-((5-(1,3,5-trimethyl-1H-pyrazol-4-yl)pyridin-2-yl)methyl)-1,2,3-oxadiazol-3-ium-5-yl)amide] | < 100 | 100 to 1000 | 
N#Cc1ncncc1-c1ccc(C[n+]2cc([N-]C(=O)Nc3cncc(C(F)(F)F)c3)on2)nc1 [Example 144, (3-((5-(4-cyanopyrimidin-5-yl)pyridin-2-yl)methyl)-1,2,3-oxadiazol-3-ium-5-yl)((5-(trifluoromethyl)pyridin-3-yl)carbamoyl)amide] | < 100 | 1000 to 20000 | 
O=C([N-]c1c[n+](Cc2ccc(-c3ccnnc3)cn2)no1)Nc1cncc(C(F)(F)F)c1 [Example 145, (3-((5-(pyridazin-4-yl)pyridin-2-yl)methyl)-1,2,3-oxadiazol-3-ium-5-yl)((5-(trifluoromethyl)pyridin-3-yl)carbamoyl)amide] |  | 1000 to 20000 | 100 to 1000
Cc1noc(C)c1-c1ccc(C[n+]2cc([N-]C(=O)Nc3cncc(C4CC4)c3)on2)nc1 [Example 146, ((5-cyclopropylpyridin-3-yl)carbamoyl)(3-((5-(3,5-dimethylisoxazol-4-yl)pyridin-2-yl)methyl)-1,2,3-oxadiazol-3-ium-5-yl)amide] |  | 100 to 1000 | 100 to 1000
Cc1nn(C)c(C)c1-c1ccc(C[n+]2cc([N-]C(=O)Nc3cncc(C(F)(F)F)c3)on2)nc1 [Example 147, ((5-(trifluoromethyl)pyridin-3-yl)carbamoyl)(3-((5-(1,3,5-trimethyl-1H-pyrazol-4-yl)pyridin-2-yl)methyl)-1,2,3-oxadiazol-3-ium-5-yl)amide] | < 100 | 100 to 1000 | 
N#Cc1ncncc1-c1ccc(C[n+]2cc([N-]C(=O)Nc3cccc(C(F)(F)F)c3)on2)nc1 [Example 148, (3-((5-(4-cyanopyrimidin-5-yl)pyridin-2-yl)methyl)-1,2,3-oxadiazol-3-ium-5-yl)((3-(trifluoromethyl)phenyl)carbamoyl)amide] | < 100 | 100 to 1000 | 
Cc1ccncc1-c1ccc(C[n+]2cc([N-]C(=O)Nc3cncc(C(F)(F)F)c3)on2)nc1 [Example 149, (3-((4′-methyl-[3,3′-bipyridin]-6-yl)methyl)-1,2,3-oxadiazol-3-ium-5-yl)((5-(trifluoromethyl)pyridin-3-yl)carbamoyl)amide] |  | 100 to 1000 | 100 to 1000
Cc1noc(C)c1-c1ccc(C[n+]2cc([N-]C(=O)Nc3ccc(F)c(C(F)(F)F)c3)on2)nc1 [Example 150, (3-((5-(3,5-dimethylisoxazol-4-yl)pyridin-2-yl)methyl)-1,2,3-oxadiazol-3-ium-5-yl)((4-fluoro-3-(trifluoromethyl)phenyl)carbamoyl)amide] |  | < 100 | 100 to 1000
Cc1n[nH]c(C)c1-c1ccc(C[n+]2cc([N-]C(=O)Nc3cccc(C(F)(F)F)c3)on2)nc1 [Example 151, (3-((5-(3,5-dimethyl-1H-pyrazol-4-yl)pyridin-2-yl)methyl)-1,2,3-oxadiazol-3-ium-5-yl)((3-(trifluoromethyl)phenyl)carbamoyl)amide] |  | 100 to 1000 | 100 to 1000
Cc1noc(C)c1-c1ccc(C[n+]2cc([N-]C(=O)Nc3ccnc(C(F)(F)F)c3)on2)nc1 [Example 152, (3-((5-(3,5-dimethylisoxazol-4-yl)pyridin-2-yl)methyl)-1,2,3-oxadiazol-3-ium-5-yl)((2-(trifluoromethyl)pyridin-4-yl)carbamoyl)amide] | < 100 | < 100 | 
Cc1noc(C)c1-c1ccc(C[n+]2cc([N-]C(=O)Nc3cc(F)cc(C(F)(F)F)c3)on2)nc1 [Example 153, (3-((5-(3,5-dimethylisoxazol-4-yl)pyridin-2-yl)methyl)-1,2,3-oxadiazol-3-ium-5-yl)((3-fluoro-5-(trifluoromethyl)phenyl)carbamoyl)amide] |  | < 100 | 100 to 1000
Cc1noc(C)c1-c1ccc(C[n+]2cc([N-]C(=O)Nc3cnc(C(F)(F)F)s3)on2)nc1 [Example 154, (3-((5-(3,5-dimethylisoxazol-4-yl)pyridin-2-yl)methyl)-1,2,3-oxadiazol-3-ium-5-yl)((2-(trifluoromethyl)thiazol-5-yl)carbamoyl)amide] |  | 100 to 1000 | 100 to 1000
O=C([N-]c1c[n+](Cc2ccc(-c3cncnc3C3CC3)cn2)no1)Nc1cccc(C(F)(F)F)c1 [Example 155, (3-((5-(4-cyclopropylpyrimidin-5-yl)pyridin-2-yl)methyl)-1,2,3-oxadiazol-3-ium-5-yl)((3-(trifluoromethyl)phenyl)carbamoyl)amide] |  | 100 to 1000 | 100 to 1000
Cc1cc(NC(=O)[N-]c2c[n+](Cc3ccc(-c4c(C)noc4C)cn3)no2)cc(C(F)(F)F)c1 [Example 156, (3-((5-(3,5-dimethylisoxazol-4-yl)pyridin-2-yl)methyl)-1,2,3-oxadiazol-3-ium-5-yl)((3-methyl-5-(trifluoromethyl)phenyl)carbamoyl)amide] |  | 100 to 1000 | 1000 to 20000
Cc1noc(C)c1-c1ccc(C[n+]2cc([N-]C(=O)Nc3ccc(Cl)c(C(F)(F)F)c3)on2)nc1 [Example 157, ((4-chloro-3-(trifluoromethyl)phenyl)carbamoyl)(3-((5-(3,5-dimethylisoxazol-4-yl)pyridin-2-yl)methyl)-1,2,3-oxadiazol-3-ium-5-yl)amide] |  | 100 to 1000 | 1000 to 20000
Cc1ccc(NC(=O)[N-]c2c[n+](Cc3ccc(-c4c(C)noc4C)cn3)no2)cc1C(F)(F)F [Example 158, (3-((5-(3,5-dimethylisoxazol-4-yl)pyridin-2-yl)methyl)-1,2,3-oxadiazol-3-ium-5-yl)((4-methyl-3-(trifluoromethyl)phenyl)carbamoyl)amide] |  | < 100 | 100 to 1000
COc1nccc(C)c1-c1ccc(C[n+]2cc([N-]C(=O)Nc3cccc(C(F)(F)F)c3)on2)nc1 [Example 159, (3-((2′-methoxy-4′-methyl-[3,3′-bipyridin]-6-yl)methyl)-1,2,3-oxadiazol-3-ium-5-yl)((3-(trifluoromethyl)phenyl)carbamoyl)amide] |  | < 100 | 100 to 1000
O=C([N-]c1c[n+](Cc2ccc(-c3ccnnc3)cn2)no1)Nc1cccc(C(F)(F)F)c1 [Example 160, (3-((5-(pyridazin-4-yl)pyridin-2-yl)methyl)-1,2,3-oxadiazol-3-ium-5-yl)((3-(trifluoromethyl)phenyl)carbamoyl)amide] | < 100 | 100 to 1000 | 
Cc1noc(C)c1-c1ccc(C[n+]2cc([N-]C(=O)Nc3cccc(C(F)(F)F)n3)on2)nc1 [Example 161, (3-((5-(3,5-dimethylisoxazol-4-yl)pyridin-2-yl)methyl)-1,2,3-oxadiazol-3-ium-5-yl)((6-(trifluoromethyl)pyridin-2-yl)carbamoyl)amide] |  | 1000 to 20000 | 1000 to 20000
Cc1ccnnc1-c1ccc(C[n+]2cc([N-]C(=O)Nc3cccc(C(F)(F)F)c3)on2)nc1 [Example 162, (3-((5-(4-methylpyridazin-3-yl)pyridin-2-yl)methyl)-1,2,3-oxadiazol-3-ium-5-yl)((3-(trifluoromethyl)phenyl)carbamoyl)amide] | < 100 | < 100 | 
Cc1cnccc1-c1ccc(C[n+]2cc([N-]C(=O)Nc3cccc(C(F)(F)F)c3)on2)nc1 [Example 163, (3-((3′-methyl-[3,4′-bipyridin]-6-yl)methyl)-1,2,3-oxadiazol-3-ium-5-yl)((3-(trifluoromethyl)phenyl)carbamoyl)amide] |  | < 100 | 100 to 1000
O=C([N-]c1c[n+](Cc2ccc(-c3ccncc3F)cn2)no1)Nc1cccc(C(F)(F)F)c1 [Example 164, (3-((3′-fluoro-[3,4′-bipyridin]-6-yl)methyl)-1,2,3-oxadiazol-3-ium-5-yl)((3-(trifluoromethyl)phenyl)carbamoyl)amide] |  | < 100 | 100 to 1000
Cc1cnn(C)c1-c1ccc(C[n+]2cc([N-]C(=O)Nc3cccc(C(F)(F)F)c3)on2)nc1 [Example 165, (3-((5-(1,4-dimethyl-1H-pyrazol-5-yl)pyridin-2-yl)methyl)-1,2,3-oxadiazol-3-ium-5-yl)((3-(trifluoromethyl)phenyl)carbamoyl)amide] |  | < 100 | 100 to 1000
